The structures appear in SMILES notation.

The text below walks through data of ChEMBL document CHEMBL1121470, “Synthesis and antiinflammatory activity of some 2-(substituted-pyridinyl)benzimidazoles” (J Med Chem, 1980).

Data set [1] relates to Rattus norvegicus. The experiment in a line: Compound was tested for ulcerogenicity when administered perorally. Format: functional.
Data set [2] is described as follows: Compound was tested for acute toxicity when administered intraperitoneally in mice. The settings on record: mouse, in vivo, ip. Format: organism-based.
Data set [3] relates to Rattus norvegicus. Kind of data set: Antiinflammatory activity was evaluated by carrageenan-induced rat paw edema assay after 3 hr at 100 mg/kg concentration administered perorally. It counts as functional. The following applies: route oral.
Data set [4] relates to Rattus norvegicus. Kind of data set: Compound was tested for inhibition of scald edema when administered perorally. The following applies: po. It counts as functional.
Data set [5] concerns Rattus norvegicus. Kind of data set: Compound was tested for anti-pyrexia (Yeast-induced pyrexia) when administered perorally. Format: functional. The following applies: po.
Data set [6] has as its system Rattus norvegicus. The experiment in a line: Compound was tested for analgesia by Acetic acid writhing method when administered perorally. The settings on record: po. Format: functional.
The nature of data set [7]: Compound was evaluated for lethal dose in mice when administarted intraperitoneally. The following applies: mouse, in vivo, ip. It counts as toxicity, organism-based.
Data set [8] relates to Rattus norvegicus. The experiment in a line: Antiinflammatory activity was evaluated by contund edema after 3 hr at 200 mg/kg concentration administered perorally. The settings on record: route oral. It counts as functional.
Data set [9] concerns Rattus norvegicus. The experiment in a line: Compound was tested for inhibition of contund edema when administered perorally. It counts as functional. The following applies: po.
The subject of data set [10] is Mus musculus. Kind of data set: Compound was evaluated for analgesia at 100 mg/kg when administered perorally (+ = positive mice >/=2). Format: functional. The following applies: route oral.
In data set [11] the target is T1, Cyclooxygenase (Rattus norvegicus, UniProt P35355+Q63921).
T1 sequence (P35355 whole entry): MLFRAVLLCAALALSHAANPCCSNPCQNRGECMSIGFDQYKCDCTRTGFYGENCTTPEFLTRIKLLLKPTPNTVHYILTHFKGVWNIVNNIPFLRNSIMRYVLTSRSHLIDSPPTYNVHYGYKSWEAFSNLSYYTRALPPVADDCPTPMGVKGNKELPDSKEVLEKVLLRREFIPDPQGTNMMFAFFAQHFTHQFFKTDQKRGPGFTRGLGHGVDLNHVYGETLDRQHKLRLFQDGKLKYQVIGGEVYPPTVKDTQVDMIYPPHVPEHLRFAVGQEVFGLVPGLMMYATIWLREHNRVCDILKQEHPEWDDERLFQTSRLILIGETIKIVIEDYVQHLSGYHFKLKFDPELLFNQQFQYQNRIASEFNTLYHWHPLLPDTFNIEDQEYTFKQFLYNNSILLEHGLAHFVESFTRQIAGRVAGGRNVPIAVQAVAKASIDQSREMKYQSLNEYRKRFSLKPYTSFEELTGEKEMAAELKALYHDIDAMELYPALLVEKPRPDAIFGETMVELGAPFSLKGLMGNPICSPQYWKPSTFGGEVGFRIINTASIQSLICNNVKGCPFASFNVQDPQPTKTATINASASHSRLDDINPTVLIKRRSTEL
T1 sequence (Q63921 whole entry): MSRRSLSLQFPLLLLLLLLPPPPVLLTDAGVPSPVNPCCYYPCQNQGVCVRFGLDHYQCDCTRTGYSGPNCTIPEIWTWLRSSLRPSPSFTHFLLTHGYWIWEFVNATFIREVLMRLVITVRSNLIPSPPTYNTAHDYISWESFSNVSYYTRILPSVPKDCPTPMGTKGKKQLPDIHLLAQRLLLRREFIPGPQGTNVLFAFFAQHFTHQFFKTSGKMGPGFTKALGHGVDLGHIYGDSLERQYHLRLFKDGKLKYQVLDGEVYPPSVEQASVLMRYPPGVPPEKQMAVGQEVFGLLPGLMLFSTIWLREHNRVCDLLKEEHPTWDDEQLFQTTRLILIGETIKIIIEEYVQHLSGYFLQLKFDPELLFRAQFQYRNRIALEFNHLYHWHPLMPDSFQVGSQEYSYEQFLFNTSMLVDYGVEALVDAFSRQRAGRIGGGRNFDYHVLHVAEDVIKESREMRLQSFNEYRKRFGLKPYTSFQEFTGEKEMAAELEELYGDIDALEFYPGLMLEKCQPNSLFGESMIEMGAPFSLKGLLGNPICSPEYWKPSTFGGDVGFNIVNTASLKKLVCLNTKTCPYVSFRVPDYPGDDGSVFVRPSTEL
The experiment in a line: Compound was tested for inhibition of prostaglandin synthetase […]. It counts as protein assay.

Data set [12] relates to Rattus norvegicus. The experiment in a line: Compound was tested for inhibition of carrageenan induced edema when administered perorally. It counts as functional. The following applies: po.
Data set [13] has as its system Mus musculus. The experiment in a line: Compound was evaluated for analgesia at 100 mg/kg when administered perorally (+ = positive mice >/= 2). The settings on record: route oral. It counts as functional.
Data set [14] has as its system Rattus norvegicus. Kind of data set: Antiinflammatory activity was evaluated by contund edema assay after 3 hr at 200 mg/kg concentration administered perorally. It counts as functional. The following applies: route oral.
Data set [15] concerns Mus musculus. Kind of data set: Compound was evaluated for analgesic activity at 100 mg/kg when administered perorally (- = positive mice</= 1). Format: functional. The following applies: route oral.
The test system of data set [16] is Rattus norvegicus. The experiment in a line: Antiinflammatory activity was evaluated by carrageenan-induced rat paw edema assay after 3 hr at 100 mg/kg concentration administered perorally (=p</=0.01). It counts as functional. The settings on record: route oral.
Data set [17] has as its system Mus musculus. Kind of data set: Compound was evaluated for analgesia at 100 mg/kg when administered perorally (- = positive mice</=1). The following applies: route oral. It counts as functional.
For data set [18], the system named is Rattus norvegicus. Kind of data set: Antiinflammatory activity was evaluated by carrageenan-induced rat paw edema assay after 3 hr at 100 mg/kg concentration administered perorally (=p< 0.05). It counts as functional. The settings on record: route oral.
Data set [19] has as its system Rattus norvegicus. Kind of data set: Compound was tested for inhibition of contund edema when administered perorally. The settings on record: po.
Data set [20] concerns Rattus norvegicus. The experiment in a line: Antiinflammatory activity by carrageenan-induced rat paw edema assay after 3 hr at 100 mg/kg concentration administered perorally. It counts as functional. The settings on record: route oral.
The subject of data set [21] is Rattus norvegicus. The experiment in a line: Compound was tested for anti-pyrexia when administered perorally. Format: functional. The settings on record: po.
The subject of data set [22] is Rattus norvegicus. The experiment in a line: Compound was tested for analgesia when administered perorally. Format: functional. The settings on record: po.
Data set [23] relates to Mus musculus. The experiment in a line: Compound was tested for acute toxicity when administered perorally. The following applies: po. Format: functional.

Take `CCc1ccc(-c2nc3ccccc3[nH]2)nc1`: the UD50 in [1] came to 200 mg/kg. For the same molecule, the LD50 in [2] and in data set [7] was 1230 mg/kg throughout. This molecule had an inhibition in vivo at 100 mg/kg in [3] of 44%. Further, the ED40 in data set [4] was found to be 110 mg/kg; in [9], 142 mg/kg; in [12], 70 mg/kg. This molecule showed an ED60 in data set [5] of 68 mg/kg. In data set [6], this molecule returned a median effective dose (ED50) of 140 mg/kg. In [8], this molecule had an inhibition in vivo at 200 mg/kg of 81%. This molecule also came in with an Activity in data set [10] of 2. In addition, in data set [11], the 50% inhibitory concentration (IC50) was 0.000076 M.

`COc1cccc(-c2nc3ccccc3[nH]2)n1` yielded an inhibition in vivo at 100 mg/kg in data set [3] of 47%. For the same molecule, the LD50 in data set [7] was more than 300 mg/kg. In data set [13], the Activity result is on record as “>=2”.

Molecule `Cc1cccc(-c2nc3ccccc3[nH]2)n1` registered an inhibition in vivo at 200 mg/kg in [14] of 59%. This molecule yielded an inhibition in vivo at 100 mg/kg in data set [3] of 44%. In addition, the LD50 in [7] stood at 3250 mg/kg. The Activity in [15] was found to be 1.

In data set [16], `CCc1ccc(-c2nc3cc(OC)ccc3[nH]2)nc1` came in with an inhibition in vivo at 100 mg/kg of 58%. In data set [17], this molecule gave an Activity of 1. The LD50 in data set [7] is more than 300 mg/kg.

On to `CCc1ccc(-c2nc3cc(C)ccc3[nH]2)nc1`, for which, in data set [18], testing at 100 mg/kg gave an inhibition in vivo of 35%.

In the case of `CCCCC1C(=O)N(c2ccccc2)N(c2ccccc2)C1=O` [PHENYLBUTAZONE], the UD50 in [1] is 142 mg/kg. The ED40 in [19] worked out at 200 mg/kg; in data set [4] it was 180 mg/kg; in data set [12] it was 100 mg/kg. Also, testing at 100 mg/kg in [20] gave an inhibition in vivo of 43%. Moreover, the ED60 in data set [21] stood at 44 mg/kg. This molecule also came in with an ED50 in data set [22] of 280 mg/kg. This molecule came in with a median lethal dose (LD50) in [23] of 616 mg/kg. The same molecule yielded a 50% inhibitory concentration (IC50) in data set [11] of 0.000015 M.

In the case of `Cl.O=C(Cn1c(=O)sc2ccc(Cl)cc21)N1CCN(CCO)CC1` [TIARAMIDE HYDROCHLORIDE], the UD50 in data set [1] was determined as 163 mg/kg. The ED40 worked out at 200 mg/kg in [19], 200 mg/kg in [4] and 160 mg/kg in data set [12]. In addition, testing at 100 mg/kg in data set [20] gave an inhibition in vivo of 31%. In data set [21], this molecule returned an ED60 of 100 mg/kg. In [22], this molecule registered a median effective dose (ED50) of 76 mg/kg. In data set [23], this molecule yielded an LD50 of 203 mg/kg. The same molecule returned an IC50 in data set [11] of more than 0.0001 M.
